Test results from ChEMBL document CHEMBL1201862, “PubChem BioAssay data set” (2004).
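48-hour exposure; five concentrations; linearly interpolated endpoints. Abbreviation: GI50, concentration required for 50% inhibition of growth.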 Calls of active or inactive are those of the source. Cut-off read from the data, not from the text of the source: active = GI50 up to about 1.1 µM and inactive = higher.

Columns and labels:
Assay in all cases: NCI-60 cell line screen, 48 h
786-0 = system: 786-0
A498 = system: A498
A549 = system: A549
ACHN = system: ACHN
CCRF-CEM = system: CCRF-CEM
COLO 205 = system: COLO 205
DLD-1 = system: DLD-1
DMS-114 = system: DMS-114
DMS-273 = system: DMS-273
EKVX = system: EKVX
HCC 2998 = system: HCC 2998
HCT-116 = system: HCT-116
HCT-15 = system: HCT-15
HL-60 = system: HL-60
HOP-18 = system: HOP-18
HOP-62 = system: HOP-62
HOP-92 = system: HOP-92
HT-29 = system: HT-29
IGROV-1 = system: IGROV-1
K562 = system: K562
KM-20L2 = system: KM-20L2
KM12 = system: KM12
LOX IMVI = system: LOX IMVI
LXFL 529 = system: LXFL 529
M14 = system: M14
MOLT-4 = system: MOLT-4
Malme-3M = system: Malme-3M
NCI-H226 = system: NCI-H226
NCI-H23 = system: NCI-H23
NCI-H460 = system: NCI-H460
NCI-H522 = system: NCI-H522
OVCAR-3 = system: OVCAR-3
OVCAR-4 = system: OVCAR-4
OVCAR-5 = system: OVCAR-5
OVCAR-8 = system: OVCAR-8
RPMI-8226 = system: RPMI-8226
RXF 393 = system: RXF 393
SF-268 = system: SF-268
SF-295 = system: SF-295
SF-539 = system: SF-539
SK-MEL-28 = system: SK-MEL-28
SK-MEL-2 = system: SK-MEL-2
SK-OV-3 = system: SK-OV-3
SN12C = system: SN12C
SNB-19 = system: SNB-19
SNB-78 = system: SNB-78
SR = system: SR
SW-620 = system: SW-620
TK-10 = system: TK-10
U-251 = system: U-251
UACC-257 = system: UACC-257
UACC-62 = system: UACC-62
UO-31 = system: UO-31
XF498 = system: XF498
RXF 631 = system: RXF 631
SK-MEL-5 = system: SK-MEL-5

## CSC(=N)N1N=C2/C(=C/c3ccccc3)CCC[C@H]2[C@H]1c1ccccc1
786-0
  GI50: 5.47 µM (inactive)
A498
  GI50: 4.11 µM (inactive)
A549
  GI50: 4.49 µM (inactive)
ACHN
  GI50: 3.36 µM (inactive)
CCRF-CEM
  GI50: 2.6 µM (inactive)
COLO 205
  GI50: 1.55 µM (inactive)
DLD-1
  GI50: 3.48 µM (inactive)
DMS-114
  GI50: 2.9 µM (inactive)
DMS-273
  GI50: 2.75 µM (inactive)
EKVX
  GI50: 4.56 µM (inactive)
HCC 2998
  GI50: 3.27 µM (inactive)
HCT-116
  GI50: 2.83 µM (inactive)
HCT-15
  GI50: 6.52 µM
HL-60
  GI50: 1.72 µM (inactive)
HOP-18
  GI50: 1.07 µM (active)
HOP-62
  GI50: 6.65 µM (inactive)
HOP-92
  GI50: 4.28 µM (inactive)
HT-29
  GI50: 2.07 µM (inactive)
IGROV-1
  GI50: 2.12 µM (inactive)
K562
  GI50: 1.91 µM (inactive)
KM-20L2
  GI50: 2.34 µM (inactive)
KM12
  GI50: 9.84 µM (inactive)
LOX IMVI
  GI50: 4.19 µM (inactive)
LXFL 529
  GI50: 4.55 µM (inactive)
M14
  GI50: 3.67 µM (inactive)
MOLT-4
  GI50: 2.69 µM (inactive)
Malme-3M
  GI50: 1.93 µM (inactive)
NCI-H226
  GI50: 2.64 µM (inactive)
NCI-H23
  GI50: 4.88 µM (inactive)
NCI-H460
  GI50: 5.68 µM (inactive)
NCI-H522
  GI50: 4.23 µM (inactive)
OVCAR-3
  GI50: 10.6 µM (inactive)
OVCAR-4
  GI50: 2.58 µM (inactive)
OVCAR-5
  GI50: 3.98 µM (inactive)
OVCAR-8
  GI50: 10.8 µM (inactive)
RPMI-8226
  GI50: 2.18 µM (inactive)
RXF 393
  GI50: 2.86 µM (inactive)
SF-268
  GI50: 15.2 µM (inactive)
SF-295
  GI50: 4.69 µM (inactive)
SF-539
  GI50: 6.58 µM (inactive)
SK-MEL-28
  GI50: 3.13 µM (inactive)
SK-MEL-2
  GI50: 4.2 µM (inactive)
SK-OV-3
  GI50: 3.68 µM (inactive)
SN12C
  GI50: 3.92 µM (inactive)
SNB-19
  GI50: 6.47 µM (inactive)
SNB-78
  GI50: 16 µM (inactive)
SR
  GI50: 1.85 µM (inactive)
SW-620
  GI50: 3.91 µM (inactive)
TK-10
  GI50: 12.7 µM (inactive)
U-251
  GI50: 12 µM (inactive)
UACC-257
  GI50: 2.37 µM (inactive)
UACC-62
  GI50: 10.9 µM (inactive)
UO-31
  GI50: 3.4 µM (inactive)
XF498
  GI50: 10.8 µM (inactive)

## CCCCCCCCCCCCCCCCCC(=O)NCC(COP(=O)([O-])OCC[N+](C)(C)C)OCC (stereo not given)
A549
  GI50: 19.2 µM (inactive)
DMS-114
  GI50: 18.5 µM (inactive)
DMS-273
  GI50: 0.137 µM (active)
EKVX
  GI50: 21.9 µM (inactive)
KM-20L2
  GI50: 0.237 µM (active)
LOX IMVI
  GI50: 24.9 µM (inactive)
Malme-3M
  GI50: 21.3 µM (inactive)
NCI-H23
  GI50: 19.7 µM (inactive)
RXF 631
  GI50: 22.2 µM (inactive)
SF-539
  GI50: 17.7 µM (inactive)
SK-MEL-28
  GI50: 18.2 µM (inactive)
SK-MEL-5
  GI50: 17.7 µM (inactive)
SK-OV-3
  GI50: 19.4 µM (inactive)
SNB-19
  GI50: 0.174 µM (active)
UACC-257
  GI50: 18.6 µM (inactive)
UO-31
  GI50: 19.5 µM (inactive)
